Consider 30 molecules from patent US7507748B2, “Substituted aryl-amine derivatives and methods of use” (Amgen Inc., priority 2004, dated 2009).

For the assay, the system named is Human Umbilical Vein Endothelial cells. Kind of assay: VEGF-stimulated HUVEC proliferation assay. The class given is cell-based. The settings on record: 72 h, CyQuant, read-out: inhibited VEGF-stimulated HUVEC proliferation at a level. Here is the method: Human Umbilical Vein Endothelial cells are purchased from Clonetics, Inc., as cryopreserved cells harvested from a pool of donors. These cells, at passage 1, are thawed and expanded in EBM-2 complete medium, until passage 2 or 3. The cells are trypsinized, washed in DMEM+10% FBS+antibiotics, and spun at 1000 rpm for 10 min. Prior to centrifugation of the cells, a small amount is collected for a cell count. After centrifugation, the medium is discarded, and the cells are resuspended in the appropriate volume of DMEM+10% FBS+antibiotics to achieve a concentration of 3×10^5 cells/mL. Another cell count is performed to confirm the cell concentration. The cells are diluted to 3×10^4 cells/mL in DMEM+10% FBS+antibiotics, and 100 μL of cells are added to a 96-well plate. The cells are incubated at 37° C. for 22 h.
Prior to the completion of the incubation period, compound dilutions are prepared. Five-point, five-fold serial dilutions are prepared in DMSO, at concentrations 400-fold greater than the final concentrations desired. 2.5 μL of each compound dilution are diluted further in a total of 1 mL DMEM+10% FBS+antibiotics (400× dilution). Medium containing 0.25% DMSO is also prepared for the 0 μM compound sample. At the 22-hour timepoint, the medium is removed from the cells, and 100 μL of each compound dilution is added. The cells are incubated at 37° C. for 2-3 h.
During the compound pre-incubation period, the growth factors are diluted to the appropriate concentrations. Solutions of DMEM+10% FBS+antibiotics, containing either VEGF or bFGF at the following concentrations: 50, 10, 2, 0.4, 0.08, and 0 ng/mL are prepared. For the compound-treated cells, solutions of VEGF at 550 ng/mL or bFGF at 220 ng/mL for 50 ng/mL or 20 ng/mL final concentrations, respectively, are prepared since 10 μL of each will be added to the cells (110 μL final volume). At the appropriate time after adding the compounds, the growth factors are added. VEGF is added to one set of plates, while bFGF is added to another set of plates. For the growth factor control curves, the media on wells B4-G6 of plates 1 and 2 are replaced with media containing VEGF or bFGF at the varying concentrations (50-0 ng/mL). The cells are incubated at 37° C. for an additional 72 h.
At the completion of the 72 h incubation period, the medium is removed, and the cells are washed twice with PBS. After the second wash with PBS, the plates are tapped gently to remove excess PBS, and the cells are placed at −70° C. for at least 30 min. The cells are thawed and analyzed using the CyQuant fluorescent dye (Molecular Probes C-7026), following the manufacturer's recommendations. The plates are read on a Victor/Wallac 1420 workstation at 485 nm/530 nm (excitation/emission). Raw data are collected and analyzed using a 4-parameter fit equation in XLFit. IC50 values are then determined.

With `CCOC(=O)C(C)c1ccc(NC(=O)c2cccnc2Nc2ccc3ccncc3c2)cc1` (racemic) [Example 52, 2(R,S)-(4-{[2-(Isoquinolin-7-ylamino)-pyridine-3-carbonyl]-amino}-phenyl)-propionic acid ethyl ester], the IC50 is less than 1000 nM.

For `CC(C(=O)O)c1ccc(NC(=O)c2cccnc2Nc2ccc3ccncc3c2)cc1` (racemic) [Example 53, 2(R,S)-(4-{[2-(Isoquinolin-7-ylamino)-pyridine-3-carbonyl]-amino}-phenyl)-propionic acid], the IC50 was less than 1000 nM.

For the molecule `CC1(C)CN(C(=O)[C@H]2CCCO2)Cc2cc(NC(=O)c3cccnc3Nc3ccc4ccncc4c3)ccc21` (stereo in doubt) [Example 74, N-[4,4-Dimethyl-2-(tetrahydro-furan-2-carbonyl)-1,2,3,4-tetrahydro-isoquinolin-7-yl]-2-(isoquinolin-7-ylamino)-nicotinamide], the IC50 is less than 1000 nM.

On to `COC(c1ccc(NC(=O)c2cccnc2Nc2ccc3ccncc3c2)cc1)(C(F)(F)F)C(F)(F)F` [Example 10, 2-(Isoquinolin-7-ylamino)-N-[4-(2,2,2-trifluoro-1-methoxy-1-trifluoromethyl-ethyl)-phenyl]-nicotinamide], for which the IC50 is less than 1000 nM.

With `O=C(Nc1ccc(C(F)(F)C(F)(F)F)cc1)c1cccnc1Nc1ccc2ccncc2c1` [Example 11, 2-(Isoquinolin-7-ylamino)-N-(4-pentafluoroethyl-phenyl)-nicotinamide], the IC50 was less than 1000 nM.

As to `O=C(Nc1ccc(C(F)(F)F)cc1)c1cccnc1Nc1ccc2ccncc2c1` [Example 12, 2-(Isoquinolin-7-ylamino)-N-(4-trifluoromethyl-phenyl)-nicotinamide], the IC50 is less than 1000 nM.

Take `CC(=O)N1Cc2cc(NC(=O)c3cccnc3Nc3ccc4ccncc4c3)ccc2C(C)(C)C1` [Example 13, N-(2-Acetyl-4,4-dimethyl-1,2,3,4-tetrahydro-isoquinolin-7-yl)-2-(isoquinolin-7-ylamino)-nicotinamide]: the IC50 was less than 1000 nM.

Regarding `CC(C)(C)c1ccc(NC(=O)c2cccnc2Nc2ccc3ccncc3c2)cc1` [Example 14, N-(4-tert-Butyl-phenyl)-2-(isoquinolin-7-ylamino)-nicotinamide], the IC50 was less than 1000 nM.

In the case of `CC(C)(C)c1cc(NC(=O)c2cccnc2Nc2ccc3ccncc3c2)no1` [Example 15, N-(5-tert-Butyl-isoxazol-3-yl)-2-(isoquinolin-7-ylamino)-nicotinamide], the IC50 was less than 1000 nM.

In the case of `CNc1ncnc2ccc(Nc3ncccc3C(=O)Nc3ccc4c(c3)CN(C(C)=O)CC4(C)C)cc12` [Example 16, N-(2-Acetyl-4,4-dimethyl-1,2,3,4-tetrahydro-isoquinolin-7-yl)-2-(4-methylamino-quinazolin-6-ylamino)-nicotinamide], the IC50 was less than 1000 nM.

For the molecule `CC1(C)CNCc2cc(NC(=O)c3cccnc3Nc3ccc4c(c3)OC(F)(F)O4)ccc21` [Example 22, 2-(2,2-Difluoro-benzo[1,3]dioxol-5-ylamino)-N-(4,4-dimethyl-1,2,3,4-tetrahydro-isoquinolin-7-yl)-nicotinamide], the IC50 is less than 1000 nM.

For `Cc1nc2cc(NC(=O)c3cccnc3Nc3ccc4[nH]nnc4c3)ccc2s1` [Example 23, 2-(1H-Benzotriazol-5-ylamino)-N-(2-methyl-benzothiazol-5-yl)-nicotinamide], the IC50 was less than 1000 nM.

Take `CC1(C)CC(=O)Nc2cc(NC(=O)c3cccnc3Nc3ccc4[nH]nnc4c3)ccc21` [Example 24, 2-(1H-1,2,3-benzotriazol-5-ylamino)-N-(4,4-dimethyl-2-oxo-1,2,3,4-tetrahydroquinolin-7-yl)nicotinamide]: the IC50 is less than 1000 nM.

With `CC(C)(C)c1cc(NC(=O)c2cccnc2Nc2ccc3[nH]nnc3c2)no1` [Example 25, 2-(1H-benzo[d][1,2,3]triazol-5-ylamino)-N-(5-tert-butylisoxazol-3-yl)nicotinamide], the IC50 is less than 1000 nM.

As to `CC(C)(C)c1ccc(NC(=O)c2ccccc2Nc2ccc3ccncc3c2)cc1` [Example 27, N-(4-tert-Butyl-phenyl)-2-(isoquinolin-7-ylamino)-benzamide], the IC50 is less than 1000 nM.

For `CC1(C)CCNc2cc(NC(=O)c3ccccc3Nc3ccc4ccncc4c3)ccc21` [Example 28, N-(4,4-Dimethyl-1,2,3,4-tetrahydro-quinolin-7-yl)-2-(isoquinolin-7-ylamino)-benzamide], the IC50 is less than 1000 nM.

Consider `CC(C)(C)c1ccc(NC(=O)c2cccc(F)c2Nc2ccc3ccncc3c2)cc1` [Example 29, N-(4-tert-Butyl-phenyl)-3-fluoro-2-(isoquinolin-7-ylamino)-benzamide], for which the IC50 was less than 1000 nM.

With `CC1(C)CCNc2cc(NC(=O)c3ccccc3Nc3ccc4ncncc4c3)ccc21` [Example 30, N-(4,4-Dimethyl-1,2,3,4-tetrahydro-quinolin-7-yl)-2-(quinazolin-6-ylamino)-benzamide], the IC50 is less than 1000 nM.

Take `CC(=O)N1CC(C)(C)c2ccc(NC(=O)c3cccnc3Nc3ccc4ccncc4c3)cc21` [Example 31, N-(1-Acetyl-3,3-dimethyl-2,3-dihydro-1H-indol-6-yl)-2-(isoquinolin-7-ylamino)-nicotinamide]: the IC50 is less than 1000 nM.

With `CC1(C)CNc2cc(NC(=O)c3cccnc3Nc3ccc4ccncc4c3)ccc21` [Example 32, N-(3,3-Dimethyl-2,3-dihydro-1H-indol-6-yl)-2-(isoquinolin-7-ylamino)-nicotinamide], the IC50 was less than 1000 nM.

Consider `COc1cc(NC(=O)c2cccnc2Nc2ccc3ccncc3c2)cc(C(F)(F)F)c1` [Example 33, 2-(Isoquinolin-7-ylamino)-N-(3-methoxy-5-trifluoromethyl-phenyl)-nicotinamide], for which the IC50 is less than 1000 nM.

Take `O=C(Nc1ccc(Cl)c(C(F)(F)F)c1)c1cccnc1Nc1ccc2ccncc2c1` [Example 34, N-(4-Chloro-3-trifluoromethyl-phenyl)-2-(isoquinolin-7-ylamino)-nicotinamide]: the IC50 was less than 1000 nM.

For `CC(C)(C)c1ccc(NC(=O)c2cccnc2Nc2cnc3ccncc3c2)cc1` [Example 35, N-(4-tert-Butyl-phenyl)-2-([1,6]naphthyridin-3-ylamino)-nicotinamide], the IC50 was less than 1000 nM.

As to `CC(C)(C)OC(=O)N1Cc2cc(NC(=O)c3cccnc3Nc3cnc4ccncc4c3)ccc2C(C)(C)C1` [Example 36, 4,4-Dimethyl-7-{[2-([1,6]naphthyridin-3-ylamino)-pyridine-3-carbonyl]-amino}-3,4-dihydro-1H-isoquinoline-2-carboxylic acid tert butyl ester], the IC50 was less than 1000 nM.

Turning to `CC1(C)CNCc2cc(NC(=O)c3cccnc3Nc3cnc4ccncc4c3)ccc21` [Example 37, N-(4,4-Dimethyl-1,2,3,4-tetrahydro-isoquinolin-7-yl)-2-([1,6]naphthyridin-3-ylamino)-nicotinamide], the IC50 was less than 1000 nM.

In the case of `O=C(Nc1ccc(C(O)(C(F)(F)F)C(F)(F)F)cc1)c1cccnc1Nc1cnc2ccncc2c1` [Example 38, 2-([1,6]Naphthyridin-3-ylamino)-N-[4-(2,2,2-trifluoro-1-hydroxy-1-trifluoromethyl-ethyl)-phenyl]-nicotinamide], the IC50 was less than 1000 nM.

As for `Cc1nc2cc(NC(=O)c3cccnc3Nc3ccc4ccncc4c3)ccc2s1` [Example 39, 2-(isoquinolin-7-ylamino)-N-(2-methyl-1,3-benzothiazol-5-yl)nicotinamide], the IC50 is less than 1000 nM.

Take `O=C(Nc1cc(OCC2CCCO2)cc(C(F)(F)F)c1)c1cccnc1Nc1ccc2ccncc2c1` (stereo not drawn) [Example 40]: the IC50 was less than 1000 nM.

For `CC1(C)CNCc2cc(NC(=O)c3cccnc3Nc3ccc4ccncc4c3)ccc21` [Example 41, N-(4,4-Dimethyl-1,2,3,4-tetrahydro-isoquinolin-7-yl)-2-(isoquinolin-7-ylamino)-nicotinamide], the IC50 was less than 1000 nM.

In the case of `CC(C)(C)c1ccc(NC(=O)c2cccnc2Nc2ccc3ccncc3c2)cn1` [Example 42, N-(6-tert-Butyl-pyridin-3-yl)-2-(isoquinolin-7-ylamino)-nicotinamide], the IC50 was less than 1000 nM.
